Test results as given in EP2140864A2 (H. Lundbeck A/S, priority 2001, dated 2002).

Molecular target: T1, human GAL3 receptor (Homo sapiens, UniProt O60755)
T1 construct: expressed in transfected cells
T1 sequence (O60755 1-368): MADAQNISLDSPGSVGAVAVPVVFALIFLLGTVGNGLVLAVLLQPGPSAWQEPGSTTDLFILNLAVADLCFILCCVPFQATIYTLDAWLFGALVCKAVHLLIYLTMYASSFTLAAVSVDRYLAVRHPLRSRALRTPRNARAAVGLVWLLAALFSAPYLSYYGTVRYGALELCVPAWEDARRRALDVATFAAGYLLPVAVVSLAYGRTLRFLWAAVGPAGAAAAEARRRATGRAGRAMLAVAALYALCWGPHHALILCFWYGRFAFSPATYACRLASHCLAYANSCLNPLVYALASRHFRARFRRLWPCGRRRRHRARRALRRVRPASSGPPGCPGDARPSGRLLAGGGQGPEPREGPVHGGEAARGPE
Assay: Radioligand binding at cloned human GAL3 receptor
Details: pyrimidines, cloned human receptor; read-out: Ki GalR3
Method: The present invention provides for a method of determining the binding affinity of a GAL3 antagonist, wherein the GAL3 antagonist is dissolved in a "suitable solvent". A "suitable solvent" means one which permits the measurement of binding affinity of the GAL3 antagonist to the human GAL3 receptor at concentrations less than 1 µM, preferably less than 100 nM. Examples of solvents include, but are not limited to, DMSO, ethanol, N,N-dimethylacetamide, or water. For indolones, the preferred solvent is 3% DMSO (final concentration in the assay). For pyrimidines, the preferred solvent is 1% ethanol/0.09% polypuronic acid F-127 (final concentration in the assay). For any other type of compounds, the preferred solvent is the solvent which permits the measurement of binding affinity of a GAL3 antagonist at the lowest concentration. Once a suitable solvent is ascertained for the binding assay of the human GAL3 receptor, the same solvent is used in assays to determine the binding affinity at the GAL1 receptor, the serotonin transporter, the norepinephrine transporter, and the dopamine transporter. A solvent of 0.4% DMSO is used in the central monoamine oxidase enzyme assay.
The binding properties of the pyrimidines of the present invention were evaluated at the cloned human galanin receptors, GAL1, GAL2, and GAL3, using protocols described herein.
The binding properties of the indolones of the present invention were evaluated at the cloned human galanin receptors, GAL1, GAL2, and GAL3, using protocols described herein.
LM(tk-) cells were stably transfected with the human GAL1 or GAL3 receptor. CHO cells were stably transfected with the human GAL2 receptor.
cDNAs for the human and rat GAL1, and human and rat GAL3 receptors were transfected with a G-418 resistant gene into the mouse fibroblast LM(tk-) cell line by a calcium phosphate transfection method (Cullen, 1987). Stably transfected cells were selected with G-418. Human and rat GAL2 receptors were similarly transfected into CHO cells.
Membranes were harvested from stably transfected LM(tk-) cells. Adherent cells were washed twice in ice-cold phosphate buffered saline (138 mM NaCl, 8.1 mM Na2HPO4, 2.5 mM KCl, 1.2 mM KH2PO4, 0.9 mM CaCl2, 0.5 mM MgCl2, pH 7.4) and lysed by sonication in ice-cold sonication buffer (20 mM Tris-HCl, 5 mM EDTA, pH 7.7). Large particles and debris were cleared by low speed centrifugation (200 x g, 5 min, 4°C). Membranes were collected from the supernatant fraction by centrifugation (32,000 x g, 18 min, 4°C), washed with ice-cold hypotonic buffer, and collected again by centrifugation (32,000 x g, 18 min, 4°C). The final membrane pellet was resuspended by sonication into a small volume of ice-cold binding buffer (-1 ml for every 5 plates: 10 mM NaCl, 20 mM HEPES, 0.22 mM KH2PO4, 1.26 mM CaCl2, 0.81 mM MgSO4, pH 7.4). Protein concentration was measured by the Bradford method (Bradford, 1976) using Bio-Rad Reagent, with bovine serum albumin as a standard. Membranes were held on ice for up to one hour and used fresh, or flash frozen and stored in liquid nitrogen. Membranes were prepared similarly from CHO cells.
Galanin Recentors: Binding assays were performed according to the following published methods: human GAL3 (PCT International Publication No. WO 98/15570), human GAL1 (PCT International Publication No. WO 95/2260), human GAL2 (PCT International Publication No. WO 97/26853).
Binding data were analyzed using nonlinear regression and statistical techniques available in the GraphPAD Prism package (San Diego, CA). Enzymatic assay data were derived from a standard curve of reference compound data.

| SMILES | Ki |
| --- | --- |
| COc1ccccc1CN1CCN(c2nc(Nc3ccc(C)cc3)cc(N(C)C)n2)CC1 [Example 175] | 56 nM |
| Cc1ccc(Nc2cc(N(C)C)nc(NCCNc3ccccc3)n2)cc1 [Example 176] | 608 nM |
| COc1cccc(Nc2cc(N(C)C)nc(N(C)CCc3ccccn3)n2)c1 [Example 177] | 142 nM |
| CN(C)c1cc(Nc2ccc(C3CCCCC3)cc2)nc(N2CCN(c3cnccn3)CC2)n1 [Example 178] | 26 nM |
| CN(C)c1cc(Nc2cccc(OCc3ccccc3)c2)nc(N2CCN(c3cnccn3)CC2)n1 [Example 179] | 15 nM |
| CN(C)c1cc(Nc2ccc3c(c2)CCC3)nc(N2CCN(c3cnccn3)CC2)n1 [Example 180] | 151 nM |
| Cc1ccc(Nc2cc(N(C)C)nc(N3CCN(c4cnccn4)CC3)n2)cc1 [Example 181] | 750 nM |
| Cc1ccc(Nc2cc(N(C)C)nc(N3CCN(c4cnccn4)CC3)n2)cc1C [Example 183] | 66 nM |
| Cc1ccc(Nc2cc(N3CCC(=O)CC3)nc(N3CCN(Cc4ccccc4)CC3)n2)cc1 [Example 184] | 163 nM |
| CCCc1ccccc1Nc1cc(N(C)C)nc(N2CCN(c3ccccn3)CC2)n1 [Example 185, N^4,N^4-dimethyl-N^6-(2-propylphenyl)-2-[4-(2-pyridinyl)-1-piperazinyl]-4,6-pyrimidinediamine] | 365 nM |
| CN(C)c1cc(Nc2ccccc2Cc2ccccc2)nc(N2CCN(c3ccccn3)CC2)n1 [Example 186] | 69 nM |
| CCCCCCc1ccc(Nc2cc(N(C)C)nc(N3CCN(c4ccccn4)CC3)n2)cc1 [Example 187] | 19 nM |
| CN(C)c1cc(Nc2ccc(Cc3ccccc3)cc2)nc(N2CCN(c3ccccn3)CC2)n1 [Example 188] | 27 nM |
| CCCCCCCc1ccc(Nc2cc(N(C)C)nc(N3CCN(c4ccccn4)CC3)n2)cc1 [Example 189] | 26 nM |
| Cc1ccc(Nc2cc(N(C)C)nc(N3CCN(c4ccccn4)CC3)n2)cc1C [Example 190] | 153 nM |
| CC(C)c1cccc(Nc2cc(N(C)C)nc(N3CCN(c4ccccn4)CC3)n2)c1 [Example 191] | 75 nM |

| SMILES | Ki |
| --- | --- |
| CCCCCCCCc1ccc(Nc2cc(N(C)C)nc(N3CCN(c4ccccn4)CC3)n2)cc1 [Example 192] | 18 nM |
| CN(C)c1cc(Nc2cccc(I)c2)nc(N2CCN(c3ccccn3)CC2)n1 [Example 193] | 244 nM |
| CN(C)c1cc(Nc2ccc(Cl)cc2)nc(N2CCN(c3ccccn3)CC2)n1 [Example 194] | 248 nM |
| CN(C)c1cc(Nc2ccc(F)c(F)c2)nc(N2CCN(c3ccccn3)CC2)n1 [Example 196] | 443 nM |
| COc1cc(Nc2cc(N(C)C)nc(N3CCN(c4ccccn4)CC3)n2)cc(C(F)(F)F)c1 [Example 197] | 666 nM |
| CN(C)c1cc(Nc2ccc(F)c(F)c2F)nc(N2CCN(c3ccccn3)CC2)n1 [Example 198] | 560 nM |
| CN(C)c1cc(Nc2ccc(Br)cc2F)nc(N2CCN(c3ccccn3)CC2)n1 [Example 199] | 199 nM |
| Cc1cc(Nc2cc(N(C)C)nc(N3CCN(c4ccccn4)CC3)n2)ccc1F [Example 200] | 311 nM |
| COc1ccc(OC)c(Nc2cc(N(C)C)nc(N3CCN(c4ccccn4)CC3)n2)c1 [Example 201] | 566 nM |
| COc1cc(Nc2cc(N(C)C)nc(N3CCN(c4ccccn4)CC3)n2)cc(OC)c1 [Example 202] | 740 nM |
| CN(C)c1cc(Nc2cccc(OCc3ccccc3)c2)nc(N2CCN(c3cccc(Br)c3)CC2)n1 [Example 203] | 52 nM |
| Cc1ccc(Nc2cc(N(C)C)nc(N3CCN(c4ccccn4)CC3)n2)c(Br)c1 [Example 204] | 269 nM |
| CN(C)c1cc(Nc2ccc(Cl)cc2Cl)nc(N2CCN(c3ccccn3)CC2)n1 [Example 205] | 193 nM |
| CN(C)c1cc(Nc2cccc(F)c2)nc(N2CCN(c3ccccn3)CC2)n1 [Example 206] | 454 nM |
| CN(C)c1cc(Nc2cccc(OC(F)(F)F)c2)nc(N2CCN(c3ccccn3)CC2)n1 [Example 207] | 58 nM |
| CN(C)c1cc(Nc2cc(Cl)ccc2Cl)nc(N2CCN(c3ccccn3)CC2)n1 [Example 208] | 120 nM |
